Data: patent publication US8563543B2, “Iminothiadiazine dioxide compounds as bace inhibitors, compositions, and their use” (Merck Sharp & Dohme Corp., priority 2009, dated 2013)
Where “and” joins values, the source holds several entries; their conditions need not be identical. Identical values can stand only once.

How the values were obtained:
[1] = Solution stability (hydrolysis) by LC/MS in pH 7.4 phosphate buffer; type: physicochemical; settings: for hydrolysis: 25° C. over 6 days; for hydrolysis / hydrolysis product share of the sample: pH 7.4
Method: The following procedures were used to measure solution stability, and to compare the solution stability of the compounds of the invention to that of otherwise structurally identical iminopyrimidinones.
Stock solutions of the tested compounds were prepared by dissolving about 3 mg of each compound in 3 mL of acetonitrile. Standards for test compounds were prepared by diluting 1 mL of the stock solution with an additional 4 mL of acetonitrile. These standards were stored at 4° C. Samples were prepared by diluting 1 mL of the stock solution with 4 mL of 50 mM pH 7.4 phosphate buffer. These samples were stored at the appropriate temperature in the absence of light. Standards and samples were analyzed by LC/MS initially and at day 1, day 4, and day 6. • HPLC Conditions: • Mobile phase A: 10 mM pH 5 ammonium acetate buffer:methanol (90:10) • Mobile phase B: 10 mM pH 5 ammonium acetate buffer:methanol (10:90) • Column: Zorbax SB-Phenyl 4.6×50 mm, 1.8 μm • Column temperature: 40° C. • Flow: 0.8 mL/min. • Gradient:
• Detectors: UV at 220 nm and 236 nm • MS, ES ionization, positive mode, for identification only at final time point. • The terms reported in the tables below have the following meanings: • Area % is the integration of peak from HPLC as reported by Waters Empower II software. • RRT is the relative retention time of new product compared to the standard of the test compound. • Formula for RRT is:
[formula] • M+1 is the mass observed including protonation (+1 mass unit). • ND stands for no peak detected by the UV detector. • * stands for no ion detected by the mass spectrometer.

[2] = target: soluble human BACE1 catalytic domain (Homo sapiens, UniProt P56817); assay: BACE1 HTRF FRET assay; type: biochemical; settings: calculated from IC50 using the Cheng-Prusoff equation
Source text: Dimethyl Sulfoxide (DMSO)
Recombinant human soluble BACE1 catalytic domain (>95% pure)
APP Swedish mutant peptide substrate (QSY7-APP^swe-Eu): QSY7-[…]-Europium-amide
A homogeneous time-resolved FRET assay was used to determine IC50 values for inhibitors of the soluble human BACE1 catalytic domain. This assay monitored the increase of 620 nm fluorescence that resulted from BACE1 cleavage of an APPswedish APP^swe mutant peptide FRET substrate (QSY7-[…]-Europium-amide). This substrate contained an N-terminal QSY7 moiety that served as a quencher of the C-terminal Europium fluorophore (620 nm Em). In the absence of enzyme activity, 620 nm fluorescence was low in the assay and increased linearly over 3 hours in the presence of uninhibited BACE1 enzyme. Inhibition of BACE1 cleavage of the QSY7-APP^swe-Eu substrate by inhibitors was manifested as a suppression of 620 nm fluorescence.
Varying concentrations of inhibitors at 3× the final desired concentration in a volume of 10 ul were preincubated with purified human BACE1 catalytic domain (3 nM in 10 μl) for 30 minutes at 30° C. in reaction buffer containing 20 mM Na-Acetate pH 5.0, 10% glycerol, 0.1% Brij-35 and 7.5% DSMO. […] The 620 nm fluorescence was then read on a Rubystar HTRF plate reader (BMG Labtechnologies) using a 50 μs delay followed by a 400 millisecond acquisition time window. […]

[3] = target: T1, purified human autoBACE-2 (Homo sapiens, UniProt Q9Y5Z0); assay: BACE-2 time-resolved endpoint proteolysis assay (BACE-HTRF assay); type: biochemical; settings: calculated from IC50 using the Cheng-Prusoff equation
T1 sequence (Q9Y5Z0 63-473 limits assumed): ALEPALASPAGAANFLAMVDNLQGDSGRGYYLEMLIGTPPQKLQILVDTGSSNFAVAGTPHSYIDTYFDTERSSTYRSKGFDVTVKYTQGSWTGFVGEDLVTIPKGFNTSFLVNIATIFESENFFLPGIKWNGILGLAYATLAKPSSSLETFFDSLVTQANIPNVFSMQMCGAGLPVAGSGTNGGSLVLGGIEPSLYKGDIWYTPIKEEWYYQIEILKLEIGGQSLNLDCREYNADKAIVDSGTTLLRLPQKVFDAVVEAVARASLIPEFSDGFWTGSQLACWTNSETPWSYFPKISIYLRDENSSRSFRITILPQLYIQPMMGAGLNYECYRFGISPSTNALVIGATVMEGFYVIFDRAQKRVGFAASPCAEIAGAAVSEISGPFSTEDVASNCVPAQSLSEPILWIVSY
Method: Inhibitor IC50 values at purified human autoBACE-2 were determined in a time-resolved endpoint proteolysis assay that measures hydrolysis of the QSY7-[…]-Eu-amide FRET peptide substrate (BACE-HTRF assay). RACE-mediated hydrolysis of this peptide results in an increase in relative fluorescence (RFU) at 620 nm after excitation with 320 nm light. Inhibitor compounds, prepared at 3× the desired final concentration in 1×BACE assay buffer (20 mM sodium acetate pH 5.0, 10% glycerol, 0.1% Brij-35) supplemented with 7.5% DMSO were pre-incubated with an equal volume of autoBACE-2 enzyme diluted in 1×RACE assay buffer (final enzyme concentration 1 nM) in black 384-well NUNC plates for 30 minutes at 30° C. […] DMSO was present at 5% final concentration in the assay. Following laser excitation of sample wells at 320 nm, the fluorescence signal at 620 nm was collected for 400 ms following a 50 μs delay on a RUBYstar HTRF plate reader (BMG Labtechnologies). Raw RFU data was normalized to maximum (1.0 nM RACE/DMSO) and minimum (no enzyme/DMSO)RFU values. IC50 values were determined by nonlinear regression analysis (sigmoidal dose response, variable slope) of percent inhibition data with minimum and maximum values set to 0 and 100 percent respectively. Similar IC50 values were obtained when using raw RFU data. The Ki values were calculated from the IC50 using the Cheng-Prusoff equation.

[4] = Sample at pH 7.4, 25° C., Day 1
[5] = Sample at pH 7.4, 25° C., Day 4
[6] = Sample at pH 7.4, 25° C., Day 6
[7] = Sample at pH 7.4, 25° C., Initial
[8] = Sample initial, 40° C. and 60° C. studies
[9] = Standard in acetonitrile, stored at 4° C., Day 1
[10] = Standard in acetonitrile, stored at 4° C., Day 4
[11] = Standard in acetonitrile, stored at 4° C., Day 6
[12] = Standard in acetonitrile, stored at 4° C., Initial

soluble human BACE1 catalytic domain, sequence (P56817 75-416 limits assumed): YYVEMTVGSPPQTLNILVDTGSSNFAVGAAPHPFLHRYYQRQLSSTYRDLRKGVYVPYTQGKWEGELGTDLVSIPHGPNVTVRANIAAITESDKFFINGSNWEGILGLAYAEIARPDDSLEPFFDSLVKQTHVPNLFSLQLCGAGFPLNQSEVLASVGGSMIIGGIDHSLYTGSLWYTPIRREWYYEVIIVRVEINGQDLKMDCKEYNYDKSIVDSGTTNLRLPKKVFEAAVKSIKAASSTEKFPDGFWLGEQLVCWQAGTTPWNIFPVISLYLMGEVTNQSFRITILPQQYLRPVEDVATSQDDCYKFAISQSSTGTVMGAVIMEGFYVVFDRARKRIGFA

Structure (SMILES) | hydrolysis [1] | hydrolysis product share of the sample ([1]; 40° C. over 4 days) | hydrolysis product share of the sample ([1]; 60° C.) | Area %, Day 1 (parent peak) [1, 4] [%] | Area %, Day 4 (parent peak) [1, 5] [%] | Area %, Day 6 (parent peak) [1, 6] [%] | Area %, Initial (parent peak) [1, 7] [%] | Area %, Initial (parent peak) [1, 8] [%] | Area %, Day 1 (parent peak) [1, 9] | Area %, Day 4 (parent peak) [1, 10] [%] | Area %, Day 6 (parent peak) [1, 11] [%] | Area %, Initial (parent peak) [1, 12] | Area %, Day 1 (parent peak) ([1]; pH 7.4 at 40° C., Day 1) [%] | Area %, Day 4 (parent peak) ([1]; pH 7.4 at 40° C., Day 4) [%] | other results
CN1C(=N)N[C@](C)(c2ccc(F)cc2F)[C@@H](c2ccc(C(F)(F)F)cc2)C1=O [Compound Y] | 3.36% | 31.4% | 28.5% | 100.0 | 100.0 | 89.79 | 100.0 | 98.2 | 100.0% and 99.4% | 100.0 | 100.0 | 100.0% and 98.8% | 86.3 | 55.8 | Area %, Day 6 (hydrolysis product peak) [1, 6]: 3.36%; Area %, Initial (hydrolysis product peak) [1, 8]: 0.7%; Area %, Day 1 (hydrolysis product peak) ([1]; pH 7.4 at 40° C., Day 1): 10.5%; Area %, Day 4 (hydrolysis product peak) ([1]; pH 7.4 at 40° C., Day 4): 31.4%; Area %, Day 4 (unidentified peak, RRT 0.87) ([1]; pH 7.4 at 40° C., Day 4, no ion detected by the mass spectrometer): 5.8%; Area %, Day 1 (hydrolysis product peak) ([1]; pH 7.4 at 60° C., Day 1): 28.5%; Area %, Day 1 (parent peak) ([1]; pH 7.4 at 60° C., Day 1): 56.7%; Area %, Day 1 (unidentified peak, RRT 0.87) ([1]; pH 7.4 at 60° C., Day 1, no ion detected by the mass spectrometer): 6.6%
CN1C(=N)N[C@](C)(c2ccc(F)cc2F)[C@@H](c2ccc(C(F)(F)F)cc2)S1(=O)=O [Example 3] | no hydrolysis | no hydrolysis | no hydrolysis | 100.0 | 100.0 | 100.0 | 100.0 | 100.0 | 100.0% | 100.0 | 100.0 | 100.0% | 100.0 | 100.0 | Ki [2]: ~9 nM; Ki [3]: ~11 nM; Area %, Day 4 (parent peak) ([1]; pH 7.4 at 60° C., Day 4): 87.3%; Area %, Day 4 (unidentified peak, RRT 0.52) ([1]; pH 7.4 at 60° C., Day 4, no ion detected by the mass spectrometer): 12.7%
